Experimental data reported in patent US11160784B1, “Treatment of brain metastases using organonitro compound combination therapy” (EpicentRx, Inc., priority 2015, dated 2021).

Key:
brain metastases [1] = test: Treatment of two human patients suffering from brain metastases with ABDNAZ in combination with whole brain radiation therapy; assay type: in vivo
Protocol: Two human patients suffering from brain metastases were treated according to the protocol described in Part I below using ABDNAZ in combination with whole brain radiation therapy.
(§1) ABDNAZ was administered intravenously in a formulation containing ABDNAZ, polyethylene glycol having a number-average molecular weight of 400 g/mol (PEG-400), water for injection, and NN-dimethylacetamide. A single dosage of ABDNAZ was 5 mg/m^2. During radiation therapy, (i) subjects were treated in the supine position, (ii) adequate immobilization and reproducibility of position was ensured using thermoplastic mask, (iii) the target volume included the whole brain, per the treating radiation oncologist, (iv) the lens of the eye was excluded from the beam using shielding or by beam collimation, (v) the dose of radiation is specified at central axis at mid-plane, (vi) whole brain radiotherapy was delivered with a daily fraction size of 3.0 Gy per fraction given 5 days a week for a total dose of 30 Gy, and (vii) radiation therapy was delivered using photon beam energies of 6 MV and an opposed lateral technique, where all fields are treated during each treatment session.

brain metastases [2] = test: Treatment of thirteen additional human patients suffering from brain metastases with ABDNAZ in combination with whole brain radiation therapy; assay type: in vivo; conditions: ABDNAZ 1.25 to 8.4 mg/m^2 IV + WBRT 30 Gy
Protocol: Thirteen human patients suffering from brain metastases were treated according to the protocol described in Part I below using ABDNAZ in combination with whole brain radiation therapy.
as §1, with “intravenously at a dosage” for “intravenously”, “the range” for “a formulation containing ABDNAZ, polyethylene glycol having a number-average molecular weight”, “1.25 mg/m^2 to 8.4” for “400 g/mol (PEG-400), water for injection, and NN-dimethylacetamide. A single dosage of ABDNAZ was 5”

SCCVII tumor = test: Impact of time between administration of ABDNAZ and radiation therapy on tumor growth delay; assay type: in vivo, mice; conditions: ABDNAZ 15 mg/kg IP single dose at -24 h, -2 h, concurrent, +2 h or +24 h; single local 7 Gy; FIG. 1
Protocol: The impact of the time interval between administration of ABDNAZ and radiation therapy on tumor growth delay was evaluated in mice having a SCCVII tumor. Experimental procedures and results are described below.
Mice having a SCCVII tumor were treated with radiation therapy and ABDNAZ, where the length of time between administration of radiation therapy and ABDNAZ was varied. Radiation therapy was administered as a single local dose of 7 Gy of radiation. ABDNAZ was dosed in 5 groups of mice at 15 mg/kg IP as a single dose at one of the following time points: 24 hours prior to radiation therapy, 2 hours prior to radiation therapy, concurrent with radiation therapy, 2 hours after radiation therapy, or 24 hours after radiation therapy.

[3] = first patient, four weeks after completion of ABDNAZ + WBRT

SMILES: O=C(CBr)N1CC([N+](=O)[O-])([N+](=O)[O-])C1 [ABDNAZ]
- k^trans by dynamic contrast-enhanced brain MRI (brain metastases [1]; first patient (melanoma brain metastases), 24 hours after first dose of ABDNAZ 5 mg/m^2 IV): decrease in k^trans in 4 of 5 lesions
- size of new lesion discovered (brain metastases [1]; first patient, 4 months after completion of ABDNAZ + WBRT, possibly seeding from systemic disease): 5 mm
- tolerability (brain metastases [1]; first patient, ABDNAZ 5 mg/m^2 IV + WBRT 30 Gy): well-tolerated with mild, transient infusion site pain, and without any signs of systemic or neurologic toxicity
- visual symptoms (brain metastases [1]; first patient, by the end of treatment with ABDNAZ + WBRT): improved visual symptoms with near resolution of visual field-deficit
- edema associated with lesions (brain metastases [1]; first patient, four months after completion of ABDNAZ + WBRT): decrease in associated edema of all lesions
- physical function, Barthel ADL index (brain metastases [1]; [3]): unchanged from baseline
- size of brain lesions by contrasted brain MRI (brain metastases [1]; [3]): decrease in the size of the largest right and left occipital masses
- visual symptoms (brain metastases [1]; first patient, within 48 hours of receiving the first dose of radiation therapy, ABDNAZ 5 mg/m^2 IV + WBRT): began to improve
- number of sub-centimeter metastases with complete disappearance (brain metastases [1]; second patient, 3 months after end of ABDNAZ + WBRT): 3
- lesion response on serial re-imaging (brain metastases [1]; second patient, at least 18 brain metastases at baseline, ABDNAZ + WBRT): response in all 18 visualized lesions
- infusion site pain (brain metastases [1]; second patient, during treatment): no significant infusion site pain
- k^trans by DCE-MRI (brain metastases [1]; second patient, largest evaluable lesion, 24 hours after first administration of ABDNAZ): slight reduction in k^trans
- physical function, Barthel ADL index (brain metastases [1]; second patient, one month after end of ABDNAZ + WBRT): unchanged from baseline
- adverse events (brain metastases [2]): No adverse events were observed
- patients with decrease of at least 30% in sum of longest diameters of target lesions and absolute decrease of at least 5 mm in at least one target lesion (brain metastases [2]): Approximately 50%
- tumor growth delay versus time interval between ABDNAZ and radiation therapy (SCCVII tumor): Maximum tumor growth delay occurred when ABDNAZ was administered minutes before or concomitant with radiation therapy
